Experimental data taken from ChEMBL document CHEMBL5608177, “Antitumor activity and transcriptome sequencing (RNA-seq) analyses of hepatocellular carcinoma cells in response to exposure triterpene-nucleoside conjugates” (Eur J Med Chem, 2024).
pIC50: −log10 of the molar value. The source made the active and inactive calls. The calls are words filed in the database; no cut-off is given here.

Legend:
SMMC-7721 [1] = test: Induction of apoptosis in human SMMC-7721 cells assessed as early apoptotic cells at 15 uM incubated for 24 hrs by Annexin V-FITC and propidium iodide staining based flow cytometric analysis (reference value: 0.07 %); type: functional
A549 = test: Antiproliferative activity against human A549 cells assessed as inhibition of cell growth incubated for 48 hrs by CCK-8 reagent based spectrophotometric analysis; type: functional; conditions: A549, 48 h
SMMC-7721 [2] = test: Induction of autophagy in human SMMC-7721 cells assessed as formation of autolysosomes at 10 uM incubated for 24 hrs by TEM analysis; type: functional, cell-based
SMMC-7721 [3] = test: Induction of apoptosis in human SMMC-7721 cells assessed as viable cells at 10 uM incubated for 24 hrs by Annexin V-FITC and propidium iodide staining based flow cytometric analysis (reference value: 99 %); type: functional; conditions: read-out: Activity
SMMC-7721 [4] = test: Induction of apoptosis in human SMMC-7721 cells assessed as late apoptotic cells at 15 uM incubated for 24 hrs by Annexin V-FITC and propidium iodide staining based flow cytometric analysis (reference value: 0.09 %); type: functional
SMMC-7721 [5] = test: Induction of autophagy in human SMMC-7721 cells assessed as appearance of sparse matrix at 10 uM incubated for 24 hrs by TEM analysis; type: functional, cell-based
SMMC-7721 [6] = test: Induction of apoptosis in human SMMC-7721 cells assessed as viable cells at 20 uM incubated for 24 hrs by Annexin V-FITC and propidium iodide staining based flow cytometric analysis (reference value: 99 %); type: functional; conditions: read-out: Activity
SMMC-7721 [7] = test: Induction of apoptosis in human SMMC-7721 cells at 10 uM incubated for 24 hrs by Annexin V-FITC and propidium iodide staining based flow cytometric analysis relative to control; type: functional
SMMC-7721 [8] = test: Induction of apoptosis in human SMMC-7721 cells assessed as necrotic cells at 15 uM incubated for 24 hrs by Annexin V-FITC and propidium iodide staining based flow cytometric analysis (reference value: 0.65 %); type: functional
KYSE-150 cell line = test: Antiproliferative activity against human KYSE-150 cell line assessed as inhibition of cell growth incubated for 48 hrs by CCK-8 reagent based spectrophotometric analysis; type: functional; conditions: KYSE-150, 48 h
SMMC-7721 [9] = test: Induction of apoptosis in human SMMC-7721 cells assessed as necrotic cells at 15 uM incubated for 24 hrs in presence of 3-MA by Annexin V-FITC and propidium iodide staining based flow cytometric analysis (reference value: 0.65 %); type: functional
SMMC-7721 [10] = test: Induction of apoptosis in human SMMC-7721 cells assessed as early apoptotic cells at 15 uM incubated for 24 hrs in presence of 3-MA by Annexin V-FITC and propidium iodide staining based flow cytometric analysis (reference value: 0.07 %); type: functional
SMMC-7721 [11] = test: Induction of apoptosis in human SMMC-7721 cells assessed as early apoptotic cells at 15 uM incubated for 24 hrs in presence of Nec1 by Annexin V-FITC and propidium iodide staining based flow cytometric analysis (reference value: 0.07 %); type: functional
SMMC-7721 [12] = test: Antiproliferative activity against human SMMC-7721 cells assessed as inhibition of cell growth incubated for 48 hrs by CCK-8 reagent based spectrophotometric analysis; type: functional; conditions: SMMC-7721, 48 h
SMMC-7721 [13] = test: Induction of apoptosis in human SMMC-7721 cells assessed as necrotic cells at 10 uM incubated for 24 hrs by Annexin V-FITC and propidium iodide staining based flow cytometric analysis (reference value: 0.61 %); type: functional
SMMC-7721 [14] = test: Induction of apoptosis in human SMMC-7721 cells assessed as viable cells at 15 uM incubated for 24 hrs in presence of 3-MA by Annexin V-FITC and propidium iodide staining based flow cytometric analysis (reference value: 99.2 %); type: functional; conditions: read-out: Activity
SMMC-7721 [15] = test: Induction of apoptosis in human SMMC-7721 cells assessed as late apoptotic cells at 20 uM incubated for 24 hrs by Annexin V-FITC and propidium iodide staining based flow cytometric analysis (reference value: 0.14 %); type: functional
SMMC-7721 [16] = test: Induction of apoptosis in human SMMC-7721 cells assessed as necrotic cells at 15 uM incubated for 24 hrs in presence of zVAD by Annexin V-FITC and propidium iodide staining based flow cytometric analysis (reference value: 0.65 %); type: functional
SMMC-7721 [17] = test: Induction of apoptosis in human SMMC-7721 cells assessed as viable cells at 15 uM incubated for 24 hrs in presence of Nec1 by Annexin V-FITC and propidium iodide staining based flow cytometric analysis (reference value: 99.2 %); type: functional; conditions: read-out: Activity
MCF7 = test: Antiproliferative activity against human MCF7 cells assessed as inhibition of cell growth incubated for 48 hrs by CCK-8 reagent based spectrophotometric analysis; type: functional; conditions: MCF7, 48 h
[18] = Toxicity in Zebrafish embryo assessed as reduction in survival rate at upto 100 uM incubated for 48 hrs by microscopic analysis; set-up: species or system Danio rerio; conditions: in vivo
SMMC-7721 [19] = test: Induction of apoptosis in human SMMC-7721 cells assessed as necrotic cells at 15 uM incubated for 24 hrs in presence of Nec1 by Annexin V-FITC and propidium iodide staining based flow cytometric analysis (reference value: 0.65 %); type: functional
SMMC-7721 [20] = test: Induction of apoptosis in human SMMC-7721 cells assessed as viable cells at 15 uM incubated for 24 hrs by Annexin V-FITC and propidium iodide staining based flow cytometric analysis (reference value: 99.2 %); type: functional; conditions: read-out: Activity
HeLa = test: Antiproliferative activity against human HeLa cells assessed as inhibition of cell growth incubated for 48 hrs by CCK-8 reagent based spectrophotometric analysis; type: functional
PC-3 = test: Antiproliferative activity against human PC-3 cells assessed as inhibition of cell growth incubated for 48 hrs by CCK-8 reagent based spectrophotometric analysis; type: functional; conditions: PC-3, 48 h
SMMC-7721 [21] = test: Induction of autophagy in human SMMC-7721 cells assessed as formation of autophagosome at 10 uM incubated for 24 hrs by TEM analysis; type: functional, cell-based
SMMC-7721 [22] = test: Induction of apoptosis in human SMMC-7721 cells assessed as late apoptotic cells at 15 uM incubated for 24 hrs in presence of 3-MA by Annexin V-FITC and propidium iodide staining based flow cytometric analysis (reference value: 0.09 %); type: functional
SMMC-7721 [23] = test: Induction of apoptosis in human SMMC-7721 cells assessed as viable cells at 15 uM incubated for 24 hrs in presence of zVAD by Annexin V-FITC and propidium iodide staining based flow cytometric analysis (reference value: 99.2 %); type: functional; conditions: read-out: Activity
SMMC-7721 [24] = test: Induction of apoptosis in human SMMC-7721 cells assessed as late apoptotic cells at 10 uM incubated for 24 hrs by Annexin V-FITC and propidium iodide staining based flow cytometric analysis (reference value: 0.14 %); type: functional
SMMC-7721 [25] = test: Induction of apoptosis in human SMMC-7721 cells assessed as early apoptotic cells at 20 uM incubated for 24 hrs by Annexin V-FITC and propidium iodide staining based flow cytometric analysis (reference value: 0.28 %); type: functional
SMMC-7721 [26] = test: Induction of apoptosis in human SMMC-7721 cells assessed as late apoptotic cells at 15 uM incubated for 24 hrs in presence of Nec1 by Annexin V-FITC and propidium iodide staining based flow cytometric analysis (reference value: 0.09 %); type: functional
SMMC-7721 [27] = test: Induction of apoptosis in human SMMC-7721 cells assessed as early apoptotic cells at 10 uM incubated for 24 hrs by Annexin V-FITC and propidium iodide staining based flow cytometric analysis (reference value: 0.28 %); type: functional

Structure (SMILES)	Activity (SMMC-7721 [1]) [%]	pIC50 (A549)	Activity (SMMC-7721 [2])	viability at 10 µM (SMMC-7721 [3]) [%]	Activity (SMMC-7721 [4]) [%]	Activity (SMMC-7721 [5])	viability at 20 µM (SMMC-7721 [6]) [%]	Activity (SMMC-7721 [7]) [%]	Activity (SMMC-7721 [8]) [%]	pIC50 (KYSE-150 cell line)	Activity (SMMC-7721 [9]) [%]	Activity (SMMC-7721 [10]) [%]	Activity (SMMC-7721 [11]) [%]	pIC50 (SMMC-7721 [12])	Activity (SMMC-7721 [13]) [%]	viability at 15 µM (SMMC-7721 [14]) [%]	Activity (SMMC-7721 [15]) [%]	Activity (SMMC-7721 [16]) [%]	viability at 15 µM (SMMC-7721 [17]) [%]	pIC50 (MCF7)	other results
C=C(C)[C@@H]1CC[C@]2(C(=O)OC)CC[C@]3(C)[C@H](CC[C@@H]4[C@@]5(C)C[C@@H](Cc6cn([C@]7(CO)O[C@@H](n8ccc(O)nc8=O)[C@@H](F)[C@@H]7O)nn6)C(=O)C(C)(C)[C@@H]5CC[C@]43C)[C@@H]12	0.06	4.75	Active	96.2	11.4	Active	62.3	0.42	15.7	4.98	11.2	0.05	0.23	5.11	2.69	86.2	17.5	9.3	87.4	4.73	Activity [18]: Non-Toxic; Activity (SMMC-7721 [19]): 3.24%; viability at 15 µM (SMMC-7721 [20]): 72.8%; pIC50 (HeLa): 4.93; pIC50 (PC-3): 4.64; Activity (SMMC-7721 [21]): Active; Activity (SMMC-7721 [22]): 2.54%; viability at 15 µM (SMMC-7721 [23]): 82%; Activity (SMMC-7721 [24]): 0.78%; Activity (SMMC-7721 [25]): 0.43%; Activity (SMMC-7721 [26]): 9.13%; Activity (SMMC-7721 [27]): 0.35%
C=C(C)[C@@H]1CC[C@]2(C(=O)OC)CC[C@]3(C)[C@H](CC[C@@H]4[C@@]5(C)C[C@@H](Cc6cn([C@H]7C[C@H](n8cc(C)c(O)nc8=O)O[C@@H]7CO)nn6)C(=O)C(C)(C)[C@@H]5CC[C@]43C)[C@@H]12	0.04	4.92	Active	91.7	15.2	Active	58	0.54	16.6	5.25	1.77	0.23	0.19	5.30	1.48	91.6	18.9	9.33	83.6	5.01	Activity [18]: Non-Toxic; Activity (SMMC-7721 [19]): 5.17%; viability at 15 µM (SMMC-7721 [20]): 68.2%; pIC50 (HeLa): 5.22; pIC50 (PC-3): 5.00; Activity (SMMC-7721 [21]): Active; Activity (SMMC-7721 [22]): 6.4%; viability at 15 µM (SMMC-7721 [23]): 87.9%; Activity (SMMC-7721 [24]): 6.31%; Activity (SMMC-7721 [25]): 0.089%; Activity (SMMC-7721 [26]): 10.8%; Activity (SMMC-7721 [27]): 0.48%
